# According to US7902240B2, “Substituted pyrazole and triazole compounds as KSP inhibitors” (Novartis AG, priority 2006, dated 2011):
# Where “and” joins values, the source holds several entries; their conditions need not be identical. Identical values can stand only once.
# Biological target: T1, motor domain of human KSP (Eg 5, KNSL1) (Homo sapiens, UniProt P52732)
# T1 construct: KSP motor protein (i.e., the KSP motor domain); made in house
# T1 sequence (P52732 18-359 limits assumed): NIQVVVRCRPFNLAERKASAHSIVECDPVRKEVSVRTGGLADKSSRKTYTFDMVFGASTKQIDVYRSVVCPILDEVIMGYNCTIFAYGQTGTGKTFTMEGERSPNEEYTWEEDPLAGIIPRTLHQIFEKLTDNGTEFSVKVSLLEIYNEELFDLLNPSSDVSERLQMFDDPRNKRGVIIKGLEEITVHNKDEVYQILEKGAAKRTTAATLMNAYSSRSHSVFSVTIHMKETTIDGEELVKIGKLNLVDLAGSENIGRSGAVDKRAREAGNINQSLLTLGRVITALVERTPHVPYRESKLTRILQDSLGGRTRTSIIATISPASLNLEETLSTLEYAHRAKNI
# Assay: Assay for determining KSP activity (microtubule-stimulated ATPase, Biomol Green)
# Type: biochemical
# Conditions: KSP motor domain 45 nM, microtubules 35 μg/mL, ATP, 1 hour RT, absorbance at 630 nm
# Source text: This example provides a representative in vitro assay for determining KSP activity in vitro. Purified microtubules obtained from bovine brain were purchased from Cytoskeleton Inc. (Denver, Colo., USA). The motor domain of human KSP (Eg 5, KNSL1) was cloned, expressed, and purified to greater than 95% homogeneity. Biomol Green was purchased from Affinity Research Products Ltd. (Matford Court, Exeter, Devon, United Kingdom). Microtubules and KSP motor protein (i.e., the KSP motor domain) were diluted in assay buffer (20 mM Tris-HCl (pH 7.5), 1 mM MgCl2, 10 mM DTT and 0.25 mg/mL BSA) to a final concentration of 35 μg/mL microtubules and 45 nM KSP. The microtubule/KSP mixture was then pre-incubated at 37° C. for 10 min to promote the binding of KSP to microtubules.
# To each well of the testing plate (384-well plate) containing 1.25 μL of inhibitor or test compound in DMSO (or DMSO only in the case of controls) were added 25 μL of ATP solution (ATP diluted to a concentration of 300 μM in assay buffer) and 25 μL of the above-described microtubule/KSP solution. The plates were incubated at RT for 1 hour. Following incubation, 65 μL of Biomol Green (a malachite green-based dye that detects the release of inorganic phosphate) was added to each well. The plates were incubated for an additional 5-10 minutes then the absorbance at 630 nm was determined using a Victor II plate reader. The amount of absorbance at 630 nm corresponded to the amount of KSP activity in the samples. The IC50 of each inhibitor or test compound was then determined based on the decrease in absorbance at 630 nm at each concentration, via nonlinear regression using either XLFit for Excel or Prism data analysis software by GraphPad Software Inc.
row,SMILES,IC50
1,"C[C@H](O)C(=O)N(CC[C@H](N)CF)[C@@H](c1nc(-c2cc(Cl)cc(Cl)c2)nn1Cc1ccccc1)C(C)(C)C [Compound 71, (S)-N-((S)-3-amino-4-fluorobutyl)-N-((R)-1-(1-benzyl-3-(3,5-dichlorophenyl)-1H-1,2,4-triazol-5-yl)-2,2-dimethylpropyl)-2-hydroxypropanamide]",> 1 µM
2,"C[C@H](O)C(=O)N(CC[C@@H](N)C(F)F)[C@@H](c1nc(-c2cc(F)ccc2F)nn1Cc1cccc(C#N)c1)C(C)(C)C [Compound 77, (S)-N-((R)-3-amino-4,4-difluorobutyl)-N-((R)-1-(1-(3-cyanobenzyl)-3-(2,5-difluorophenyl)-1H-1,2,4-triazol-5-yl)-2,2-dimethylpropyl)-2-hydroxypropanamide]",> 0.1 µM and ≤ 1 µM
3,"C[C@H](O)C(=O)N(CC[C@@H](N)C(F)F)[C@@H](c1nc(-c2cc(F)ccc2F)nn1Cc1cccc(C(F)(F)F)c1)C(C)(C)C [Compound 78, (S)-N-((R)-3-amino-4,4-difluorobutyl)-N-((R)-1-(3-(2,5-difluorophenyl)-1-(3-(trifluoromethyl)benzyl)-1H-1,2,4-triazol-5-yl)-2,2-dimethylpropyl)-2-hydroxypropanamide]",> 0.1 µM and ≤ 1 µM
4,"Cc1cccc(Cn2nc(-c3cc(F)ccc3F)nc2[C@H](N(CC[C@H](N)C(F)F)C(=O)[C@H](C)O)C(C)(C)C)c1 [Compound 79, (S)-N-((S)-3-amino-4,4-difluorobutyl)-N-((R)-1-(3-(2,5-difluorophenyl)-1-(3-methylbenzyl)-1H-1,2,4-triazol-5-yl)-2,2-dimethylpropyl)-2-hydroxypropanamide]",≤ 0.1 µM
5,"C[C@H](O)C(=O)N(CC[C@H](N)C(F)F)[C@@H](c1nc(-c2cc(F)ccc2F)nn1Cc1cccc(C(F)(F)F)c1)C(C)(C)C [Compound 80, (S)-N-((S)-3-amino-4,4-difluorobutyl)-N-((R)-1-(3-(2,5-difluorophenyl)-1-(3-(trifluoromethyl)benzyl)-1H-1,2,4-triazol-5-yl)-2,2-dimethylpropyl)-2-hydroxypropanamide]",> 0.1 µM and ≤ 1 µM
6,"CC(C)c1cccc(Cn2nc(-c3cc(F)ccc3F)nc2[C@H](N(CC[C@H](N)C(F)F)C(=O)[C@H](C)O)C(C)(C)C)c1 [Compound 85, (S)-N-((S)-3-amino-4,4-difluorobutyl)-N-((R)-1-(3-(2,5-difluorophenyl)-1-(3-isopropylbenzyl)-1H-1,2,4-triazol-5-yl)-2,2-dimethylpropyl)-2-hydroxypropanamide]",> 1 µM
7,"CC(C)c1cccc(Cn2nc(-c3cc(F)ccc3F)nc2[C@H](N(CC[C@@H](N)C(F)F)C(=O)[C@H](C)O)C(C)(C)C)c1 [Compound 86, (S)-N-((R)-3-amino-4,4-difluorobutyl)-N-((R)-1-(3-(2,5-difluorophenyl)-1-(3-isopropylbenzyl)-1H-1,2,4-triazol-5-yl)-2,2-dimethylpropyl)-2-hydroxypropanamide]",> 1 µM
